Test results reported in patent US10668033B2, “Modulators of the prostacyclin (PGI2) receptor useful for the treatment of disorders related thereto” (Arena Pharmaceuticals, Inc., priority 2008, dated 2020).

Legend:
[1] = Plasma profile in rats after 10 mg/kg oral dose of Compound 22 sodium salt; type: in vivo; settings: rat, after a 10 mg/kg oral dose of Compound 22 (sodium salt, FIG. 25), male rats
[2] = test system: MCT-induced pulmonary arterial hypertension; assay: Rat monocrotaline (MCT) model of pulmonary arterial hypertension; type: in vivo; settings: 30 mg/kg oral gavage twice a day for 21 days; 60 mg/kg MCT s.c.; male Wistar rats
Procedure: Male Wistar rats (100-150 g at start of study) (Charles River Laboratories, Wilmington, Mass.) were housed two per cage and maintained in a humidity—(40-60%) and temperature—(68-72° F.) controlled facility on a 12 hr:12 hr light/dark cycle (lights on at 6:30 am) with free access to food (Harlan Teklad, Orange Calif., Rodent Diet 8604) and water. Rats were allowed one week of habituation to the animal facility before testing.
The rat monocrotaline (MCT) model is a standard and well-accepted model of pulmonary arterial hypertension. MCT induces acute pulmonary endothelial damage associated with pulmonary vascular inflammation. […]
Rats were randomly given a single subcutaneous injection of either 60 mg/kg MCT (Sigma, St. Louis, Mo.) or 0.9% saline (sham) and assigned to receive oral administration of 20% hydroxypropyl beta-cyclodextrin (vehicle) or test compound (30 mg/kg; FIGS. 7 and 8). […] Heart chamber weights were measured on Day 22. […] The ratio of right ventricular (RV) weight to left ventricle plus septum (LV+S) weight (this ratio is indicated as “RV/(LV+S)” in FIGS. 7 and 8) was calculated as an index of the hypertrophic response to the induced pulmonary arterial hypertension and, as such, as an index of a test compound's therapeutic efficacy for pulmonary arterial hypertension.

[3] = Pharmacokinetics in rats after oral administration of Compound 99; type: in vivo, Sprague-Dawley rat; settings: plasma analyte after 1.25 mg/kg oral dose of Compound 99, male rats
Procedure: Blood samples were obtained from 0.100 to 21.0 h post-dose for plasma drug concentration measurements. […] Pharmacokinetic parameters were estimated using non-compartmental pharmacokinetic analysis.

[4] = Excipient compatibility (stability) study; type: physicochemical; settings: four weeks in a glass vial at 50° C.
Procedure: Compound 22 was tested for stability in three of the excipients.

[5] = Excipient solubility study
Procedure: The solubility of 2-(((1r,4r)-4-(((4-chlorophenyl)(phenyl)carbamoyloxy)methyl)cyclohexyl)methoxy)acetic acid (Compound 22) and sodium 2-(((1r,4r)-4-(((4-chlorophenyl)(phenyl)carbamoyloxy)methyl)cyclohexyl)methoxy)acetate (Compound 22 sodium salt) in various excipients was measured.

[6] = Dynamic vapor sorption (DVS) hygroscopicity; type: physicochemical; settings: at 90% relative humidity; listed as Form 1 of the sodium salt of Compound 22
Procedure: Hygroscopicity was measured using a dynamic moisture-sorption analyzer, VTI Corporation, SGA-100. The sample was placed as-is in a tared sample holder on the VTI balance. A drying step was run at 40° C. and ˜1% RH for 60 to 120 min. The isotherm conditions are 25° C. with steps of 20% RH from 10% RH up to 90% RH and back to 10% RH. The weight was checked every 2 min. Percent weight change of <0.01% in 20 min or 2 h, whichever occurs first, is required before continuing to the next step.

SMILES: O=C(O)COC[C@H]1CC[C@H](COC(=O)N(c2ccccc2)c2ccc(Cl)cc2)CC1 [Compound 22, 2-(((1r,4r)-4-(((4-chlorophenyl)(phenyl)carbamoyloxy)methyl)cyclohexyl)methoxy)acetic acid]
- Tmax [1]: 1.5 h
- hypertrophic response, RV/(LV+S) [2]: inhibited the hypertrophic response
- AUC(0-t) ([3]; Sprague-Dawley, rat): 935 ng·h/mL
- Cmax ([3]; Sprague-Dawley, rat): 214 ng/mL
- half-life ([3]; Sprague-Dawley, rat, read-out: terminal phase half-life (T1/2) (converted)): 3.51 h
- time of Cmax [3]: 2.67 h
- stability in solution ([4]; Cremophor RH 40): no observable degradation or API assay loss
- stability in solution ([4]; Imwitor 742): no observable degradation or API assay loss
- stability in solution ([4]; TPGS 1000): no observable degradation or API assay loss

SMILES: O=C([O-])COC[C@H]1CC[C@H](COC(=O)N(c2ccccc2)c2ccc(Cl)cc2)CC1.[Na+] [Sodium Salt of Compound 22, sodium 2-(((1r,4r)-4-(((4-chlorophenyl)(phenyl)carbamoyloxy)methyl)cyclohexyl)methoxy)acetate]
- Solubility ([5]; Corn Oil): <100 µg/mL
- Solubility ([5]; Cremophor RH 40): 7820 µg/mL
- Solubility ([5]; Gelucire 44/14): 1610 µg/mL
- Solubility ([5]; Gelucire 50/13): <10000 µg/mL
- Solubility ([5]; Imwitor 742): 16200 µg/mL
- Solubility ([5]; Labrasol): 12980 µg/mL
- Solubility ([5]; Lauroglycol 90): 260 µg/mL
- Solubility ([5]; PEG400): 4850 µg/mL
- Solubility ([5]; PEG6000): <10000 µg/mL
- Solubility ([5]; Safflower oil): <100 µg/mL
- Solubility ([5]; TPGS 1000): 2550 µg/mL
- DVS absorption [6]: less than 0.25%
